# Columns and labels:
# Format in all cases: cell-based
# Botrytis cinerea = test: Fungal growth assay against Botrytis cinerea (Example B-1 a)
# From the text: (§1) A synergistic effect exists whenever the action of an active ingredient combination is greater than the sum of the actions of the individual components.
# (§2) The action to be expected E for a given active ingredient combination obeys the so-called COLBY formula and can be calculated as follows (COLBY, S. R. “Calculating synergistic and antagonistic responses of herbicide combination”. Weeds, Vol. 15, pages 20-22; 1967):
# (§3) ppm=milligrams of active ingredient (=a.i.) per liter of spray mixture X=% action by active ingredient A) using p ppm of active ingredient Y=% action by active ingredient B) using q ppm of active ingredient.
# (§4) According to COLBY, the expected (additive) action of active ingredients A)+B) using p+q ppm of active ingredient is
# (§5) If the action actually observed (O) is greater than the expected action (E), then the action of the combination is super-additive, i.e. there is a synergistic effect.
# (§6) Conidia of the fungus from cryogenic storage are directly mixed into nutrient broth (PDB potato dextrose broth). After placing a (DMSO) solution of the test compounds into a microtiter plate (96-well format) the nutrient broth containing the fungal spores is added. The test plates are incubated at 24 C and the inhibition of growth is determined photometrically after 3 days. The fungicide interactions in the combinations are calculated according to the COLBY method. The data generated in this experiment indicate synergy between cyprodinil and dodine and cyprodinil and pyribencarb when used in mixture with one another.
# [1] = system: Pseudocercosporella herpotrichoides var. acuformis; test: Fungal growth assay against Pseudocercosporella herpotrichoides var. acuformis (Example B-8)
# From the text: as §1, §2, §3, §4, §5
# as §6, with “cyprodinil and boscalid, cyprodinil and dodine and” for “cyprodinil and dodine and”
# Pyrenophora teres = test: Fungal growth assay against Pyrenophora teres (Example B-5 a); conditions: Cyprodinil/Pyribencarb series
# From the text: as §1, §2, §3, §4, §5
# as §6, with “The test plates are incubated at 24 C and the inhibition of growth is determined photometrically after 3 days.” left out, “and” for “and dodine and cyprodinil and”
# Fusarium culmorum = test: Fungal growth assay against Fusarium culmorum (Example B-14)
# From the text: as §1, §2, §3, §4, §5
# as §6, with “2” for “3”, “dodine, cyprodinil and fluazinam” for “dodine”
# [2] = 0.008 mg/L alone, Cyprodinil/Pyribencarb series
# [3] = 0.016 mg/L alone, Cyprodinil/Pyribencarb series
# [4] = 0.031 mg/L alone, Cyprodinil/Pyribencarb series
# [5] = 0.125 mg/L alone, Cyprodinil/Pyribencarb series
# [6] = 0.25 mg/L alone, Cyprodinil/Pyribencarb series
# [7] = 0.5 mg/L alone, Cyprodinil/Pyribencarb series
# [8] = 1 mg/L alone, Cyprodinil/Pyribencarb series
# [9] = 4 mg/L alone, Cyprodinil/Dodine series
# [10] = 8 mg/L alone, Cyprodinil/Dodine series
# [11] = 16 mg/L alone, Cyprodinil/Dodine series
# [12] = 0.125 mg/L alone, Cyprodinil/Dodine series
# [13] = 0.25 mg/L alone, Cyprodinil/Dodine series
# [14] = 0.5 mg/L alone, Cyprodinil/Dodine series
# [15] = 1 mg/L alone, Cyprodinil/Dodine series
# [16] = 2 mg/L alone, Cyprodinil/Dodine series
# [17] = 2 mg/L alone, Cyprodinil/Pyribencarb series
# [18] = 4 mg/L alone, Cyprodinil/Pyribencarb series
# [19] = 0.125 mg/L alone, Cyprodinil/Boscalid series
# [20] = 0.25 mg/L alone, Cyprodinil/Boscalid series
# [21] = 0.5 mg/L alone, Cyprodinil/Boscalid series
smiles,measurement,setting,value
COC(=O)NCc1cc(/C(C)=N/OCc2cccc(C)n2)ccc1Cl [Pyribencarb],Observed control in % (% Cobs),Botrytis cinerea; [2],0.4%
same,Observed control in % (% Cobs),Botrytis cinerea; [3],0%
same,Observed control in % (% Cobs),Botrytis cinerea; [4],3.3%
same,Observed control in % (% Cobs),"Botrytis cinerea; 0.063 mg/L alone, Cyprodinil/Pyribencarb series",2.6%
same,Observed control in % (% Cobs),Botrytis cinerea; [5],16.4%
same,Observed control in % (% Cobs),[1]; [2],16.2%
same,Observed control in % (% Cobs),[1]; [3],40.1%
same,Observed control in % (% Cobs),[1]; [4],61.1%
same,Observed control in % (% Cobs),Pyrenophora teres; 0.004 mg/L alone,0%
same,Observed control in % (% Cobs),Pyrenophora teres; 0.008 mg/L alone,0%
same,Observed control in % (% Cobs),Pyrenophora teres; 0.016 mg/L alone,0%
same,Observed control in % (% Cobs),Pyrenophora teres; 0.031 mg/L alone,0%
same,Observed control in % (% Cobs),Pyrenophora teres; 0.063 mg/L alone,17.0%
same,Observed control in % (% Cobs),Fusarium culmorum; [5],0%
same,Observed control in % (% Cobs),Fusarium culmorum; [6],8.7%
same,Observed control in % (% Cobs),Fusarium culmorum; [7],11.5%
same,Observed control in % (% Cobs),Fusarium culmorum; [8],16.2%
CCCCCCCCCCCCNC(=N)N [Dodine],Observed control in % (% Cobs),Botrytis cinerea; [9],0%
same,Observed control in % (% Cobs),Botrytis cinerea; [10],0%
same,Observed control in % (% Cobs),Botrytis cinerea; [11],36.3%
same,Observed control in % (% Cobs),[1]; [12],0%
same,Observed control in % (% Cobs),[1]; [13],0%
same,Observed control in % (% Cobs),[1]; [14],0%
same,Observed control in % (% Cobs),[1]; [15],0%
same,Observed control in % (% Cobs),[1]; [16],1.4%
same,Observed control in % (% Cobs),[1]; [9],31.3%
same,Observed control in % (% Cobs),[1]; [10],70.5%
same,Observed control in % (% Cobs),[1]; [11],72.4%
same,Observed control in % (% Cobs),Fusarium culmorum; [10],3.3%
same,Observed control in % (% Cobs),Fusarium culmorum; [11],15.1%
"Cc1cc(C2CC2)nc(Nc2ccccc2)n1 [Cyprodinil, (4-cyclopropyl-6-methyl-pyrimidin-2-yl)-phenyl-amine]",Observed control in % (% Cobs),Botrytis cinerea; [5],16.7%
same,Observed control in % (% Cobs),Botrytis cinerea; [6],22.6%
same,Observed control in % (% Cobs),Botrytis cinerea; [14],26.7%
same,Observed control in % (% Cobs),Botrytis cinerea; [7],21.4%
same,Observed control in % (% Cobs),Botrytis cinerea; [15],38.2%
same,Observed control in % (% Cobs),Botrytis cinerea; [8],25.7%
same,Observed control in % (% Cobs),Botrytis cinerea; [16],50.5%
same,Observed control in % (% Cobs),Botrytis cinerea; [17],23.2%
same,Observed control in % (% Cobs),Botrytis cinerea; [9],40.1%
same,Observed control in % (% Cobs),Botrytis cinerea; [18],37.1%
same,Observed control in % (% Cobs),Botrytis cinerea; [10],51.8%
same,Observed control in % (% Cobs),"[1]; 0.0625 mg/L alone, Cyprodinil/Boscalid series",23.5%
same,Observed control in % (% Cobs),[1]; [19],40.7%
same,Observed control in % (% Cobs),[1]; [12],10.9%
same,Observed control in % (% Cobs),[1]; [5],16.6%
same,Observed control in % (% Cobs),[1]; [20],28.9%
same,Observed control in % (% Cobs),[1]; [13],14.8%
same,Observed control in % (% Cobs),[1]; [21],19.6%
same,Observed control in % (% Cobs),[1]; [14],13.7%
same,Observed control in % (% Cobs),[1]; [7],30.1%
same,Observed control in % (% Cobs),"[1]; 1 mg/L alone, Cyprodinil/Boscalid series",17.5%
same,Observed control in % (% Cobs),[1]; [15],17.9%
same,Observed control in % (% Cobs),[1]; [8],19.3%
same,Observed control in % (% Cobs),"[1]; 2 mg/L alone, Cyprodinil/Boscalid series",24.6%
same,Observed control in % (% Cobs),[1]; [16],20.3%
same,Observed control in % (% Cobs),[1]; [17],21.5%
same,Observed control in % (% Cobs),"[1]; 4 mg/L alone, Cyprodinil/Boscalid series",33.6%
same,Observed control in % (% Cobs),[1]; [9],25.9%
same,Observed control in % (% Cobs),[1]; [18],27.2%
same,Observed control in % (% Cobs),[1]; [10],33.6%
same,Observed control in % (% Cobs),[1]; [11],46.2%
same,Observed control in % (% Cobs),Pyrenophora teres; 0.25 mg/L alone,52.0%
same,Observed control in % (% Cobs),Pyrenophora teres; 0.5 mg/L alone,59.0%
same,Observed control in % (% Cobs),"Fusarium culmorum; 2 mg/L alone, Cyprodinil/Fluazinam series",0%
same,Observed control in % (% Cobs),Fusarium culmorum; [9],0%
same,Observed control in % (% Cobs),"Fusarium culmorum; 4 mg/L alone, Cyprodinil/Fluazinam series",0%
same,Observed control in % (% Cobs),Fusarium culmorum; [10],0%
same,Observed control in % (% Cobs),"Fusarium culmorum; 8 mg/L alone, Cyprodinil/Fluazinam series",0%
same,Observed control in % (% Cobs),"Fusarium culmorum; 8 mg/L alone, Cyprodinil/Pyribencarb series",2.4%
same,Observed control in % (% Cobs),Fusarium culmorum; [11],6.7%
same,Observed control in % (% Cobs),"Fusarium culmorum; 16 mg/L alone, Cyprodinil/Fluazinam series",9.8%
same,Observed control in % (% Cobs),"Fusarium culmorum; 16 mg/L alone, Cyprodinil/Pyribencarb series",8.4%
same,Observed control in % (% Cobs),"Fusarium culmorum; 32 mg/L alone, Cyprodinil/Dodine series",26.9%
same,Observed control in % (% Cobs),"Fusarium culmorum; 32 mg/L alone, Cyprodinil/Fluazinam series",16.4%
same,Observed control in % (% Cobs),"Fusarium culmorum; 32 mg/L alone, Cyprodinil/Pyribencarb series",21.7%
O=C(Nc1ccccc1-c1ccc(Cl)cc1)c1cccnc1Cl [Boscalid],Observed control in % (% Cobs),"[1]; 0.031 mg/L alone, Cyprodinil/Boscalid series",0%
same,Observed control in % (% Cobs),"[1]; 0.063 mg/L alone, Cyprodinil/Boscalid series",2.5%
same,Observed control in % (% Cobs),[1]; [19],32.8%
same,Observed control in % (% Cobs),[1]; [20],58.4%
same,Observed control in % (% Cobs),[1]; [21],77.1%
O=[N+]([O-])c1cc(C(F)(F)F)c(Cl)c([N+](=O)[O-])c1Nc1ncc(C(F)(F)F)cc1Cl [Fluazinam],Observed control in % (% Cobs),"Fusarium culmorum; 0.063 mg/L alone, Cyprodinil/Fluazinam series",5.1%
same,Observed control in % (% Cobs),"Fusarium culmorum; 0.125 mg/L alone, Cyprodinil/Fluazinam series",11.8%
same,Observed control in % (% Cobs),"Fusarium culmorum; 0.25 mg/L alone, Cyprodinil/Fluazinam series",27.4%
same,Observed control in % (% Cobs),"Fusarium culmorum; 0.5 mg/L alone, Cyprodinil/Fluazinam series",35.7%
same,Observed control in % (% Cobs),"Fusarium culmorum; 1 mg/L alone, Cyprodinil/Fluazinam series",72.4%

# Source: US20140024667A1, “FUNGICIDAL COMPOSITIONS” (SYNGENTA CROP PROTECTION LLC, priority 2005, published 2014)
